According to patent publication US11897898B2, “Pyridine macrocycle compounds as ASK1 inhibiting agents” (BIOGEN MA INC., priority 2018, dated 2024):

Columns and labels:
ASK1/MAP3K5 = biological target: T1, ASK1/MAP3K5 (Homo sapiens, UniProt Q99683); assay: ASK1 enzyme assay (ASK1/MAP3K5 assay by Reaction Biology Corp., 33P-ATP filter-binding); assay type: biochemical; conditions: 20 μM myelin basic protein and 10 μM ATP; class symbols
T1 construct: purchased Reaction Biology Corp. (Malvern, Pa.)
T1 sequence (Q99683 1-1374): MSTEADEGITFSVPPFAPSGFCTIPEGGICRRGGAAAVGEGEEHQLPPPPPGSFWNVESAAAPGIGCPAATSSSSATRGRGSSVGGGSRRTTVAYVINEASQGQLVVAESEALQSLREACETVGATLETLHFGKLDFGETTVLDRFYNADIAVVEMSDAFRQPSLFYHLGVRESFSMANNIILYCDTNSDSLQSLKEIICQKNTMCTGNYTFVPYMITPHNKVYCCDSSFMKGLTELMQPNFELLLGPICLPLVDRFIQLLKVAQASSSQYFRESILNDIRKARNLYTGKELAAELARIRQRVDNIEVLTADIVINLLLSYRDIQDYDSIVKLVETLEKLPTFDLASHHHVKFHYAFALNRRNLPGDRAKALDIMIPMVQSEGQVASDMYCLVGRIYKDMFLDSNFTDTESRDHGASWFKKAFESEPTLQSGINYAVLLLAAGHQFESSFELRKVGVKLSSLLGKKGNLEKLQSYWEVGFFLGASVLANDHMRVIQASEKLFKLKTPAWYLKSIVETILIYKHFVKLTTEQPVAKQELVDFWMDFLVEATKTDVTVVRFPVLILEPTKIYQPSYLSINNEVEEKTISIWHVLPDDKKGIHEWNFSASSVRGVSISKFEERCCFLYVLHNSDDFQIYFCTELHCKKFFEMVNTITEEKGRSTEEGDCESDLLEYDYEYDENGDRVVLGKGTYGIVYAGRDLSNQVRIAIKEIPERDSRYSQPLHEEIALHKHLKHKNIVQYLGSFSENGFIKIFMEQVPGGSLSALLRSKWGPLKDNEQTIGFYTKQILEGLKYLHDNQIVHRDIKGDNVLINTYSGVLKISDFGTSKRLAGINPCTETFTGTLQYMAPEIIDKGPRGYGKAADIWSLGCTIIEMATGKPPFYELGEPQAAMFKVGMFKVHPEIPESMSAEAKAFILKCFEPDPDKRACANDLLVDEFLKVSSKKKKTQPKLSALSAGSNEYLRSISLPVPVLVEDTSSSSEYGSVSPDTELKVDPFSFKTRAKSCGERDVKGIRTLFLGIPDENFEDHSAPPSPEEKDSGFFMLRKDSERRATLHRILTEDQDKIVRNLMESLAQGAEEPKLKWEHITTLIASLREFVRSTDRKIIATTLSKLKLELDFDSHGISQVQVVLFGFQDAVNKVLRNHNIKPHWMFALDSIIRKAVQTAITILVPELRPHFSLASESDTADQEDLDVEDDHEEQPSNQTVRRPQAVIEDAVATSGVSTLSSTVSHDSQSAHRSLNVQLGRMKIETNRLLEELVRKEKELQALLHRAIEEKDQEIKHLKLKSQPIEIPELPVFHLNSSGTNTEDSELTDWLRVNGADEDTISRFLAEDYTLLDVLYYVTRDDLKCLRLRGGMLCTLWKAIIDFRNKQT
Description: The protein kinase inhibitory activity of the compounds described herein were tested using the ASK1/MAP3K5 assay by Reaction Biology Corp. (Malvern, Pa.). The assay procedure follows (and is also available on the Reaction Biology Corp. website). • Base Reaction Buffer: 20 mM Hepes (pH 7.5), 10 mM MgCl2, 1 mM EGTA, • 0.02% Brij35, 0.02 mg/mL BSA, 0.1 mM Na3VO4, 2 mM DTT, 1% DMSO; • Substrate: 20 μM of myelin basic protein (MBP) and 10 μM ATP; • Protein kinase: ASK1/MAP3K5. • Reaction Procedure: • 1. Prepare indicated substrate in freshly prepared Base Reaction Buffer. • 2. Deliver any required cofactors to the substrate solution. • 3. Deliver indicated kinase into the substrate solution and gently mix. • 4. Deliver compounds in DMSO into the kinase reaction mixture by Acoustic; technology (Echo550; nanoliter range), incubate for 20 minutes at room temperature. • 5. Deliver ^33P-ATP (specific activity 10 μCi/μL) into the reaction mixture to initiate the reaction. • 6. Incubate kinase reaction for 2 hours at room temperature. • 7. Reactions are spotted onto P81 ion exchange paper. • 8. Detect kinase activity by filter-binding method.

[1] = biological target: T2, ASK1 T838 auto phosphorylation (Homo sapiens, UniProt Q99683); assay: ASK1 (AUTO PHOS T838) assay in HEK-293T cells, MSD format; assay type: cell-based; conditions: HEK-293T cells transfected with ASK1-V5, 1 hr compound incubation
T2 construct: ASK1-V5 tagged full length plasmid; expressed in transfected cells; host or cells: HEK-293T
T2 sequence (Q99683 1-1374): T1 sequence (Q99683 1-1374)
Description: ASK1 T838 auto phosphorylation was measured in HEK-293T cells using MSD assay format. HEK 293T cells were seeded in 15 cm plates at a density of 18 million cells and 20 mL DMEM with 10% FBS, Pen/Strep media. The plates were incubated at 37° C. overnight. Media on plates was changed to OPTI-MEM, serum free media and cells were transfected with 9 μg of ASK1-V5 tagged full length plasmid using Lipofectamine 2000 (Invitrogen) and the plates were incubated at 37° C. overnight. Cells were trypsinized, counted on Nexcellometer and plated into 96 well tissue culture plates with 100,000 cells/well and 200 μL media. Cells were incubated for 4 hr at 37° C. then ASK1 compounds were added using a HP 300e. Compounds were tested at 20 μM with 3 fold, 10 point dilution points then incubated for 1 hr at 37° C. A lysis buffer (Cell Signaling) was prepared with protease and phosphatase inhibitor and maintained at 4° C. until use. Media from cells was discarded and 120 μL of cold lysis buffer was added to the cells, the plate was shaken 4° C. for 1 hr. Lysate was mixed using Apricot liquid handler; aspirating up and down 16 times at high speed using 50 μL volume. 50 μL of cell lysates were transferred to a pre-coated MSD plates containing mouse anti-V5 antibody (1:500 dilution) and washed 3× with MSD wash buffer (TBST) and blocked with a 3% BSA solution. Plates were then incubated on a plate shaker overnight at 4° C. Plates were washed 3× with MSD wash buffer and 50 μL of rabbit anti-pASK1 T838 antibody was added to the wells and incubated for 2 hr at room temperature on a plate shaker. Plates were then washed and 50 μL of goat anti-rabbit sulfa-tag (1:500 dilution) was added to wells, and incubated for 1 hr at room temperature on a plate shaker. Plates were washed 3× and 150 μL of 2×MSD Read buffer was added to wells. Plates were immediately read on a MSD Instrument Reader where chemoluminecense signal was measured. Data was analyzed using Graph Pad or Genedata, the data was normalized and plotted, % activity versus log of compound concentration. The IC50 values were obtained from a 4 parameter fit.

C[C@H]1CCCOc2ncc(N3CCOCC3)cc2C(=O)Nc2cccc(n2)-c2nncn21 [Compound 7, (S)-10-Methyl-5^5-morpholino-1^4H-6-oxa-3-aza-2(2,6),5(3,2)-dipyridina-1(3,4)-triazolacyclodecaphan-4-one]
IC50 (ASK1/MAP3K5): ≤ 100 nM
IC50 ([1]; class symbols): ≤ 100 nM

C[C@H]1CCCOc2ncc(N3CC4CC(C3)O4)cc2C(=O)Nc2cccc(n2)-c2nncn21 [Compound 8, (10S)-5^5-(6-Oxa-3-azabicyclo[3.1.1]heptan-3-yl)-10-methyl-1^4H-6-oxa-3-aza-2(2,6),5(3,2)-dipyridina-1(3,4)-triazolacyclodecaphan-4-one]
IC50 (ASK1/MAP3K5): ≤ 100 nM
IC50 ([1]; class symbols): ≤ 100 nM

C[C@H]1CCCOc2ncc(N3CC(F)(F)C3)cc2C(=O)Nc2cccc(n2)-c2nncn21 [Compound 9, (S)-5^5-(3,3-Difluoroazetidin-1-yl)-10-methyl-1^4H-6-oxa-3-aza-2(2,6),5(3,2)-dipyridina-1(3,4)-triazolacyclodecaphan-4-one]
IC50 (ASK1/MAP3K5): ≤ 100 nM
IC50 ([1]; class symbols): ≤ 100 nM

C[C@@H]1CN(c2cnc3c(c2)C(=O)Nc2cccc(n2)-c2nncn2[C@@H](C)CCCO3)C[C@H](C)N1 [Compound 11, (S)-5^5-((3S,5R)-3,5-Dimethylpiperazin-1-yl)-10-methyl-1^4H-6-oxa-3-aza-2(2,6),5(3,2)-dipyridina-1(3,4)-triazolacyclodecaphan-4-one]
IC50 (ASK1/MAP3K5): ≤ 100 nM
IC50 ([1]; class symbols): ≤ 100 nM

C[C@@H]1CN(c2cnc3c(c2)C(=O)Nc2cccc(n2)-c2nncn2[C@@H](C)CCCO3)C[C@@H](C)N1 [Compound 14, (S)-5^5-((3R,5R)-3,5-Dimethylpiperazin-1-yl)-10-methyl-1^4H-6-oxa-3-aza-2(2,6),5(3,2)-dipyridina-1(3,4)-triazolacyclodecaphan-4-one]
IC50 (ASK1/MAP3K5): ≤ 100 nM
IC50 ([1]; class symbols): 100 to 1000 nM

C[C@H]1CCCOc2ncc(C3=CCN(C)CC3)cc2C(=O)Nc2cccc(n2)-c2nncn21 [Compound 15, (S)-10-Methyl-5^5-(1-methyl-1,2,3,6-tetrahydropyridin-4-yl)-1^4H-6-oxa-3-aza-2(2,6),5(3,2)-dipyridina-1(3,4)-triazolacyclodecaphan-4-one]
IC50 (ASK1/MAP3K5): ≤ 100 nM
IC50 ([1]; class symbols): ≤ 100 nM

COc1ccc(-c2cnc3c(c2)C(=O)Nc2cccc(n2)-c2nncn2[C@@H](C)CCCO3)cn1 [Compound 20, (S)-5^5-(6-Methoxypyridin-3-yl)-10-methyl-1^4H-6-oxa-3-aza-2(2,6),5(3,2)-dipyridina-1(3,4)-triazolacyclodecaphan-4-one]
IC50 (ASK1/MAP3K5): ≤ 100 nM
IC50 ([1]; class symbols): ≤ 100 nM

C[C@H]1CCCOc2ncc(-c3cnccn3)cc2C(=O)Nc2cccc(n2)-c2nncn21 [Compound 22, (S)-10-Methyl-5^5-(pyrazin-2-yl)-1^4H-6-oxa-3-aza-2(2,6),5(3,2)-dipyridina-1(3,4)-triazolacyclodecaphan-4-one]
IC50 (ASK1/MAP3K5): ≤ 100 nM
IC50 ([1]; class symbols): ≤ 100 nM

C[C@H]1CCCOc2ncc(-c3ccnnc3)cc2C(=O)Nc2cccc(n2)-c2nncn21 [Compound 23, (S)-10-Methyl-5^5-(pyridazin-4-yl)-1^4H-6-oxa-3-aza-2(2,6),5(3,2)-dipyridina-1(3,4)-triazolacyclodecaphan-4-one]
IC50 (ASK1/MAP3K5): ≤ 100 nM
IC50 ([1]; class symbols): ≤ 100 nM

C[C@@H]1CCCOc2ncc(-c3cnn(CCN(C)C)c3)cc2C(=O)Nc2cccc(n2)-c2nncn21 [Compound 24, (R)-5^5-(1-(2-(Dimethylamino)ethyl)-1H-pyrazol-4-yl)-10-methyl-1^4H-6-oxa-3-aza-2(2,6),5(3,2)-dipyridina-1(3,4)-triazolacyclodecaphan-4-one]
IC50 (ASK1/MAP3K5): 1000 to 10000 nM
IC50 ([1]; class symbols): 1000 to 10000 nM

C[C@H]1CCCOc2ncc(-c3cnn(CCN(C)C)c3)cc2C(=O)Nc2cccc(n2)-c2nncn21 [Compound 25, (S)-5^5-(1-(2-(Dimethylamino)ethyl)-1H-pyrazol-4-yl)-10-methyl-1^4H-6-oxa-3-aza-2(2,6),5(3,2)-dipyridina-1(3,4)-triazolacyclodecaphan-4-one]
IC50 (ASK1/MAP3K5): ≤ 100 nM
IC50 ([1]; class symbols): ≤ 100 nM

C[C@H]1CCCOc2ncc(-c3cncn3C)cc2C(=O)Nc2cccc(n2)-c2nncn21 [Compound 28, (S)-10-Methyl-5^5-(1-methyl-1H-imidazol-5-yl)-1^4H-6-oxa-3-aza-2(2,6),5(3,2)-dipyridina-1(3,4)-triazolacyclodecaphan-4-one]
IC50 (ASK1/MAP3K5): ≤ 100 nM
IC50 ([1]; class symbols): ≤ 100 nM

C[C@@H]1CCCOc2ncc(C#N)cc2C(=O)Nc2cccc(n2)-c2nncn21 [Compound 37, (R)-10-Methyl-4-oxo-1^4H-6-oxa-3-aza-2(2,6),5(3,2)-dipyridina-1(3,4)-triazolacyclodecaphane-5^5-carbonitrile]
IC50 (ASK1/MAP3K5): 1000 to 10000 nM
IC50 [1]: ≥ 10000 nM

C[C@H]1CCCOc2ncc(C(C)(C)O)cc2C(=O)Nc2cccc(n2)-c2nncn21 [Compound 39, (S)-5^5-(2-Hydroxypropan-2-yl)-10-methyl-1^4H-6-oxa-3-aza-2(2,6),5(3,2)-dipyridina-1(3,4)triazolacyclodecaphan-4-one]
IC50 (ASK1/MAP3K5): ≤ 100 nM
IC50 ([1]; class symbols): 100 to 1000 nM

COC(C)(C)c1cnc2c(c1)C(=O)Nc1cccc(n1)-c1nncn1[C@@H](C)CCCO2 [Compound 40, (S)-5^5-(2-Methoxypropan-2-yl)-10-methyl-1^4H-6-oxa-3-aza-2(2,6),5(3,2)-dipyridina-1(3,4)-triazolacyclodecaphan-4-one]
IC50 (ASK1/MAP3K5): ≤ 100 nM
IC50 ([1]; class symbols): 100 to 1000 nM

C[C@H]1CCCOc2ncc(OCCN(C)C)cc2C(=O)Nc2cccc(n2)-c2nncn21 [Compound 44, (S)-5^5-(2-(Dimethylamino)ethoxy)-10-methyl-1^4H-6-oxa-3-aza-2(2,6),5(3,2)-dipyridina-1(3,4)-triazolacyclodecaphan-4-one]
IC50 (ASK1/MAP3K5): ≤ 100 nM
IC50 ([1]; class symbols): ≤ 100 nM
